{"source": "patent EP1484329A1", "about": "“Indole derivatives with apoptosis inducing activity” (Zentaris GmbH, priority 2003, dated 2004)", "key": {"KB/HeLa Zellen": {"test_system": "KB/HeLa Zellen", "test": "Cell cycle analysis (G2/M arrest)", "type": "cell-based", "details": "Homo sapiens, read-out: EC50 in nM (50% cells in G2/M)", "protocol": "Für die Zellzyklusanalyse wurden KB/HeLa Zellen mit den Testsubstanzen in unterschiedlichen Konzentrationen (0.1-1000 nM) 24 Stunden bei 37°C behandelt.\nDer prozentuale Anteil der in der G2/M Phase des Zellzyklus arrettierten Zellen nach Behandlung mit Referenz- oder ausgewählten Testsubstanzen ist in der nachfolgenden Tabelle 5 dargestellt. Die Ergebnisse wurden mit einer speziellen Analysesoftware (ModFit™) ausgewertet."}, "[1]": {"type": "in vivo, Mäuse (CD-1 Mausstamm)", "details": "for Effekte 7 Tage nach Gabe / Effekte 1 h nach Gabe / Effekte 2 h nach Gabe / Effekte 24 h nach Gabe / Temp. (rektal): single dose; for Temp. (rektal): measured 1 hour after application", "protocol": "Zur Beurteilung und Abschätzung möglicher Nebenwirkungen (neurodegenerative, phsychotrope Effekte etc.) bzw. toxischer Effekte ausgehend von der Verbindung 2 wurden Mäuse (CD-1 Mausstamm) in einem modifizierten Irwin-Grid Modell bei einmaliger Gabe (5, 10 und 20 mg/kg; p.o.) über eine Zeitdauer von 7 Tagen beobachtet (S. Irwin et al. Psychopharmacologia 1968, 13, 222-257). Die Ergebnisse hierzu werden in nachfolgender Tabelle 7 gezeigt: Tabelle 7: […]"}, "U-937 Zelllinie": {"test_system": "U-937 Zelllinie", "test": "CDDplus nucleosome ELISA (apoptosis detection)", "type": "cell-based", "details": "U-937, 0.1-1000nM, 4-24h", "protocol": "Zum Nachweis der Nucleosomen Partikel wurde der von der Firma Roche Molecular Biochemicals beschriebene CDD^plus Nucleosomen ELISA Test eingesetzt. Hierzu untersuchte man die Verbindung 2 an der U-937 Zelllinie bei unterschiedlichen Konzentrationen (0.1-1000nM) und bei unterschiedlicher zeitlicher Behandlung (4-24h) (s. Graph 7). [formula]"}, "L1210VCR": {"test_system": "L1210VCR", "test": "XTT proliferation assay, L1210VCR (resistant)", "type": "cell-based, murine", "excerpt": "(§1) Die Substanzen 1,2, 4-6 wurden in einem Proliferationstest an etablierten Tumorzelllinien auf ihre anti-proliferative Aktivität hin untersucht (D.A. Scuderio et al. Cancer Res. 1988, 48, 4827-4833). Der verwendete Test bestimmt die zelluläre Dehydrogenase-Aktivität und ermöglicht eine Bestimmung der Zellvitalität und indirekt der Zellzahl. Bei den verwendeten Zelllinien handelt es sich um die humane Cervixkarzinom Zelllinie KB/HeLa (ATCC CCL17), die ovariale Adenokarzinomzelllinie SKOV-3 (ATCC HTB77), die humane Glioblastom Zelllinie SF-268 (NCI 503138) und die Lungenkarzinom Zelllinie NCI-H460 (NCI 503473). Des weiteren wurde zur Untersuchung der Zellzyklus-spezifischen Wirkung der Substanz ein RKOp27 Zellsystem verwendet (M. Schmidt et al. Oncogene19(20):2423-9, 2000). Bei RKO handelt es sich um eine humane Kolonkarzinomlinie, in der der Zellzyklusinhibitor p27 ^kip1 mittels des Ecdyson Expressionssystems induziert zur Expression gebracht und zu einem Zellzyklusarrest spezifisch in G2 geführt werden kann. Eine unspezifisch wirkende Substanz hemmt die Proliferation unabhängig davon, ob die RKO Zelle in G1 oder G2 arretiert ist oder nicht. Zellzyklus-spezifische Substanzen wie beispielsweise Tubulininhibitoren sind hingegen nur dann zytotoxisch, wenn Zellen nicht arretiert sind und der Zellzyklus durchlaufen wird. In Tabelle 1 ist die zytotoxische bzw. wachstumshemmende Aktivität der beschriebenen Verbindungen mit / ohne Expression von p27^kip1gezeigt. Die getesteten Verbindungen zeigten im induzierten Zustand von p27^kiP1 keine zytotoxische Aktivität. Die Ergebnisse zeigen eine sehr potente Hemmung der Proliferation ausgewählter Tumorzelllinien durch die genannten Substanzen. Tabelle 1:\n(§2) Zur weiteren Charakterisierung wurden die Substanzen 1,2,4-6 gegenüber multi drug resistenten Zelllinien im Vergleich zu den nicht-resistenten Wildtypzelllinien untersucht.\n(§3) Bei den untersuchten Zelllinien handelt es sich um die murine L1210, die akute myeloische Leukaemie Zelllinie LT12 und um die resistenten Linien L1210/mdr und LT12/mdr. Außerdem wurden die murine P388 Zelllinie (methyl-cholanthreneinduced lymphoid neoplasm) sowie die Doxorubicin-resistente P388 als Testsysteme herangezogen."}, "L1210": {"test_system": "L1210", "test": "XTT proliferation assay, L1210 (wild type)", "type": "cell-based, murine", "excerpt": "as §1, §2, §3"}, "LT12": {"test_system": "LT12", "test": "XTT proliferation assay, LT12 (wild type)", "type": "cell-based", "excerpt": "as §1, §2, §3"}, "[2]": {"test_system": "Salmonella thyphimurium TA100", "type": "cell-based", "details": "for AMESTA100 mit S9: with rat liver S9; for AMESTA100 ohne S9: without S9", "protocol": "Die Verbindung 2 wurde in einem Fluktuationsassay gegenüber den Mutanten-Stämmen TA98 und TA100 des Bakteriums Salmonella thyphimurium bei drei Konzentrationen (2.5; 5 und 10µM) auf Mutagenität hin untersucht. Die Mutagenitätsuntersuchungen wurden ferner in Gegenwart des Rattenleberenzyms S9 durchgeführt."}, "NCI-H460": {"test_system": "NCI-H460", "test": "XTT proliferation assay, NCI-H460", "type": "cell-based", "details": "Homo sapiens, read-out: XTT Proliferationsassay, EC50 NCI-H460", "excerpt": "as §1, with “Substanzen.” for “Substanzen. Tabelle 1:”"}}, "note": "Read-outs that look alike come from different tables or passages of the source.", "data": [{"smiles": "O=C(Nc1ccc2ncccc2c1)C(=O)c1cn(Cc2ccc(Cl)cc2)c2ccccc12", "note": "[Verbindung 2, 2-[1-(4-Chlor-benzyl)-1 H-indol-3-yl]-2-oxo-N-chinolin-6-yl-acetamid]", "values": [{"measurement": "EC50", "setting": "KB/HeLa Zellen; HeLa, 24 h", "result": 52.3, "unit": "nM"}, {"measurement": "Effekte 7 Tage nach Gabe", "setting": "[1]; 5 mg/kg p.o.", "result": "Kein Effekt"}, {"measurement": "Effekte 1 h nach Gabe", "setting": "[1]; 5 mg/kg p.o.", "result": "Kein Effekt"}, {"measurement": "Effekte 2 h nach Gabe", "setting": "[1]; 5 mg/kg p.o.", "result": "Kein Effekt"}, {"measurement": "Effekte 24 h nach Gabe", "setting": "[1]; 5 mg/kg p.o.", "result": "2/6 Durchfall"}, {"measurement": "Temp. (rektal)", "setting": "[1]; 5 mg/kg p.o.", "result": "37.5 ± 0.2"}, {"measurement": "Effekte 7 Tage nach Gabe", "setting": "[1]; 10 mg/kg p.o.", "result": "Kein Effekt"}, {"measurement": "Effekte 1 h nach Gabe", "setting": "[1]; 10 mg/kg p.o.", "result": "1/6 Aufregung 1/6 Hyperreaktivität 1/6 Reizbarkeit 2/6 Berührungsrea ktivität 1/6 Stimmfähigkeit"}, {"measurement": "Effekte 2 h nach Gabe", "setting": "[1]; 10 mg/kg p.o.", "result": "2/6 Schwanzhypert onie 1/6 Hyperreaktivität 1/6 Reizbarkeit 1/6 Berührungsrea ktivität 1/6 Stimmfähigkeit"}, {"measurement": "Effekte 24 h nach Gabe", "setting": "[1]; 10 mg/kg p.o.", "result": "Kein Effekt"}, {"measurement": "Temp. (rektal)", "setting": "[1]; 10 mg/kg p.o.", "result": "37.1 ± 0.1"}, {"measurement": "Effekte 7 Tage nach Gabe", "setting": "[1]; 20 mg/kg p.o.", "result": "Kein Effekt"}, {"measurement": "Effekte 1 h nach Gabe", "setting": "[1]; 20 mg/kg p.o.", "result": "Kein Effekt"}, {"measurement": "Effekte 2 h nach Gabe", "setting": "[1]; 20 mg/kg p.o.", "result": "Kein Effekt"}, {"measurement": "Effekte 24 h nach Gabe", "setting": "[1]; 20 mg/kg p.o.", "result": "1/6 Durchfall"}, {"measurement": "Temp. (rektal)", "setting": "[1]; 20 mg/kg p.o.", "result": "37.4 ± 0.1"}, {"measurement": "toxische Effekte im modifizierten Irwin-Grid Test", "setting": "[1]; single dose 5, 10 and 20mg/kg, overall conclusion", "result": "keine toxischen Effekte"}, {"measurement": "Nucleosomen im Zelllysat", "setting": "U-937 Zelllinie; cell lysate", "result": "konzentrations- und zeitabhängiger Anstieg von Nucleosomen im Zelllysat"}, {"measurement": "Nucleosomen im Zellkulturüberstand", "setting": "U-937 Zelllinie; culture supernatant", "result": "kein signifikanter Anstieg"}, {"measurement": "EC50", "setting": "L1210VCR; Mus musculus, read-out: XTT Proliferationsassay, EC50 L1210VCR", "result": 0.078, "unit": "µg/mL"}, {"measurement": "EC50", "setting": "L1210; Mus musculus, L1210, read-out: XTT Proliferationsassay, EC50 L1210", "result": 0.074, "unit": "µg/mL"}, {"measurement": "EC50", "setting": "LT12; Rattus norvegicus, LT12, read-out: XTT Proliferationsassay, EC50 LT12", "result": 0.044, "unit": "µg/mL"}, {"measurement": "AMESTA100 mit S9", "setting": "[2]; 2.5 µM", "result": "inaktiv"}, {"measurement": "AMESTA100 ohne S9", "setting": "[2]; 2.5 µM", "result": "inaktiv"}, {"measurement": "AMESTA100 mit S9", "setting": "[2]; 5 µM", "result": "inaktiv"}, {"measurement": "AMESTA100 ohne S9", "setting": "[2]; 5 µM", "result": "inaktiv"}, {"measurement": "AMESTA100 mit S9", "setting": "[2]; 10 µM", "result": "inaktiv"}, {"measurement": "AMESTA100 ohne S9", "setting": "[2]; 10 µM", "result": "inaktiv"}, {"measurement": "EC50", "setting": "NCI-H460", "result": 0.054, "unit": "µg/mL"}]}, {"smiles": "O=C(Nc1cnc2nccnc2c1)C(=O)c1cn(Cc2ccc(Cl)cc2)c2ccccc12", "note": "[Verbindung 5, 2-[1-(4-Chlor-benzyl)-1H-indol-3-yl]-2-oxo-N-pyrido[2,3-b]pyrazin-7-yl-acetamid]", "values": [{"measurement": "EC50", "setting": "KB/HeLa Zellen; KB/HeLa, 24 h at 37°C, 0.1-1000 nM", "result": 31.9, "unit": "nM"}, {"measurement": "EC50", "setting": "L1210VCR; Mus musculus; read-out: XTT Proliferationsassay, EC50 L1210VCR", "result": 0.021, "unit": "µg/mL"}, {"measurement": "EC50", "setting": "L1210; Mus musculus, L1210; read-out: XTT Proliferationsassay, EC50 L1210", "result": 0.018, "unit": "µg/mL"}, {"measurement": "EC50", "setting": "LT12; Rattus norvegicus, LT12; read-out: XTT Proliferationsassay, EC50 LT12", "result": 0.015, "unit": "µg/mL"}, {"measurement": "EC50", "setting": "NCI-H460", "result": 0.046, "unit": "µg/mL"}]}]}
